Assay results taken from PMC10518255, “A first-in-class pan-lysyl oxidase inhibitor impairs stromal remodeling and enhances gemcitabine response and survival in pancreatic cancer” (Nature Cancer, 2023).
Where “and” joins values, the source holds several entries; their conditions need not be identical. Equal values may be shown once.

How the values were obtained:
[1] = test system: lysyl oxidase family members in KPC CCs; test: qRT-PCR of lysyl oxidase family members after treatment (Extended Data Figs. 2d, 3h); format: cell-based, mouse; design: qRT-PCR LOX (Ct) / qRT-PCR LOX ΔCt / qRT-PCR LOX ΔΔCt KPC CC / qRT-PCR LOXL1 ΔCt / qRT-PCR LOXL1 ΔΔCt KPC CC / qRT-PCR LOXL2 ΔCt / qRT-PCR LOXL2 ΔΔCt KPC CC / qRT-PCR LOXL3 ΔCt / qRT-PCR LOXL3 ΔΔCt KPC CC / qRT-PCR LOXL4 ΔCt / qRT-PCR LOXL4 ΔΔCt KPC CC: dose or concentration left out as unconfirmed;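 as to qRT-PCR LOX ΔCt: 30 µM PXS-5505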;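 as to qRT-PCR LOXL2 ΔCt: 30 µM PXS-5505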;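 as to qRT-PCR LOXL3 ΔCt: 30 µM PXS-5505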;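 as to qRT-PCR LOXL4 ΔCt: 30 µM PXS-5505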
Experimental: A total of 5 × 10^5 KPC CCs or CAFs were seeded and collected after incubation in 21% O2/5% CO2 for 72 h. RNA was isolated using the RNeasy mini kit (QIAGEN) according to the manufacturer’s instructions. Then, 1 μg of RNA was reverse transcribed using the Transcriptor First Strand cDNA Synthesis kit (Roche LifeScience) with anchored-oligo(dT)18 primers or the QuantiTect Reverse Transcription kit (QIAGEN). Real-time PCR was performed using the Roche LightCycler480 (Roche LifeScience) or QuantStudio 7 (Thermo Fisher). The following probe sets from Applied Biosystems, were used: LOX, Mm00495386; LOXL1, Mm01145738; LOXL2, Mm00804740; LOXL3, Mm01184867; LOXL4, Mm00446385; and GAPDH, Mm99999915. Primers and Roche Universal Probe Library probes used for RT–qPCR are described in Supplementary Table 4. Relative mRNA expression levels for each transcript of interest were normalized to GAPDH or ACTB (as indicated) and quantified using the comparative double ΔCt method (unless stated otherwise) for each biological replicate.
Extended Data Fig. 2 Characterization of cells derived from the KPC autochthonous model. a. Immunofluorescence staining of KPC CCs and KPC CAFs for the pancreatic epithelial cell marker CDH1 (green), DAPI (blue) and for the CAF marker α-SMA (yellow), DAPI (blue). Representative images from n = 3 biological independent samples. Scale bar = 30 μm. b. RNAseq reads for CAF and epithelial cell makers in KPC CAFs n = 3 biological independent samples. […] Data is presented as mean values ± SEM. […] Data presented as mean values +/− SD. […] Source data
Data presented as mean values +/− SD. f. […] Data presented as mean values +/− SD. […] Data presented as mean values +/− SD. […] Data presented as mean values +/− SD. Ordinary one-way ANOVA for multiple comparison test performed. Source data

KPC PDAC tumors = test: FITC-dextran (10 kDa) perfusion imaging, KPC tumors; format: in vivo, mouse; details: for FITC-dextran (10 kDa) signal quantification: Extended Data 5C, KPC tumour endpoint, individual FOV, 5xFOV per tumour
Experimental: FITC-dextran (10 kDa) was administered at 40 mg ml^−1 in saline via tail vain 2 h before culling. Excised tumors were flash-frozen in OCT and cryosectioned at 14 μm. Sections were counterstained with 4,6-diamidino-2-phenylindole (DAPI) and images were collected using a Leica DMI5500 (×40 magnification). Images were quantified using Fiji Software for Integrated Density Signal.
Extended Data Fig. 5 PXS-5505 in combination with gemcitabine in vivo. a. […] Signal is defined as the enzyme activity in the aorta, while noise is measured in the presence of a high concentration (300 µM) BAPN to abolish any lysyl oxidase family activity. […] Data presented as mean values +/− SD b. […] Data presented as mean values +/− SD. c. FITC-dextran (molecular weight: 10 kDa) signal quantification from KPC tumor end point from each treatment group (vehicle n = 3 biologically independent animals, PXS-5505 n = 5 biologically independent animals, Gem n = 5 biologically independent animals, PXS-5505 + Gem n = 5 biologically independent animals). […] P-values determined by Welchs t-test. Data presented as mean values +/− SD. Scale bars = 100 μm d. Quantification of red birefringent (mature) collagen fibers from human PDXs at end point after 3 cycles of treatment, treated as indicated. […] Quantification of bulk modulus (stiffness) by unconfined compression testing of end point human PDX tumors from each treatment group (vehicle n = 5 biologically independent animals, Gem n = 5 biologically independent animals, PXS-5505 n = 5 biologically independent animals, PXS-5505 + Gem n = 5 biologically independent animals) [individual tumors shown]). […] FITC-dextran (molecular weight 10 kDa) signal quantification from human PDXs from each treatment group (vehicle n = 4 biologically independent animals, PXS-5505 n = 5 biologically independent animals, Gem n = 5 biologically independent animals, PXS-5505 + Gem n = 5 biologically independent animals). […] P values determined by Welchs t-test. g. […] Quantification of green birefringent (nascent) collagen fibers from human PDXs at end point, treated as indicated. […]

[2] = KPC CCs, 50 nM gemcitabine, 48 hours, per replicate
[3] = KPC CCs, 50 nM gemcitabine, 48 hours, vs GAPDH, per replicate
[4] = KPC CC, 48 hour treatment, 30 M PXS-5505, replicates
[5] = KPC CC, 48 hour treatment, PXS-5505, replicates
[6] = KPC CC, 48 hour treatment, PXS-5505, vs GAPDH, replicates

**Q.** `Nc1ccn([C@@H]2O[C@H](CO)[C@@H](O)C2(F)F)c(=O)n1` [Gem, gemcitabine] was tested. Which “LOX ΔΔCt CC” value [1, 2] did it give?
**A.** 0.5966 and 0.4518 and 0.8445

**Q.** And the “LOXL1 ΔΔCt CC” value [1, 2]?
**A.** 2.011 and 0.7673 and 0.4707

**Q.** And the “LOXL2 ΔΔCt CC” value [1, 2]?
**A.** 1.535 and 1.563 and 1.2

**Q.** And the “LOXL3 ΔΔCt CC” value [1, 2]?
**A.** 1.643 and 1.594 and 1.375

**Q.** What about the “LOXL4 ΔΔCt CC” value [1, 2] of the same molecule?
**A.** 0.7511 and 0.9095 and 0.7486

**Q.** And the “LOX ΔCt” value [1, 3]?
**A.** 14.7188 and 15.1199 and 14.2176

**Q.** And the “LOXL1 ΔCt” value [1, 3]?
**A.** 12.5081 and 13.8984 and 14.6034

**Q.** What about the “LOXL2 ΔCt” value [1, 3] of the same molecule?
**A.** 4.459 and 4.433 and 4.815

**Q.** What about the “LOXL3 ΔCt” value [1, 3] of the same molecule?
**A.** 5.8941 and 5.937 and 6.151

**Q.** What about the “LOXL4 ΔCt” value [1, 3] of the same molecule?
**A.** 8.9744 and 8.6983 and 8.979

**Q.** What about the “expression of lysyl oxidase family members” value ([1]; KPC cancer cells, 50 nM gemcitabine for 48 hours) of the same molecule?
**A.** not observed

**Q.** What about the “FITC-dextran (10 kDa) signal quantification” value (KPC PDAC tumors) of the same molecule?
**A.** 60068 and 66083 and 67045 and 264388 and 103749 and 136715 and 44993 and 342971 and 570220 and 195046 and 425899 and 308368 and 729076 and 598797 and 690249 and 193339 and 215616 and 99212 and 74761 and 57841

**Q.** And the “FITC-dextran signal (tumor perfusion)” value (KPC PDAC tumors; KPC tumors at end point)?
**A.** significantly reduced FITC signal

**Q.** `Cl.Cl.NC/C=C(\F)CS(=O)(=O)c1cccc2cccnc12.O` [PXS-5505, (Z)-3-fluoro-4-(quinolin-8-ylsulfonyl)but-2-en-1-amine dihydrochloride monohydrate] was tested. Which “qRT-PCR LOXL1 (Ct)” value [1, 4] did it give?
**A.** 32.0868 and 30.4856 and 33.7318

**Q.** And the “qRT-PCR LOXL2 (Ct)” value [1, 4]?
**A.** 25.1478 and 23.1006 and 27.5044

**Q.** And the “qRT-PCR LOXL3 (Ct)” value [1, 4]?
**A.** 25.6118 and 24.0525 and 29.0502

**Q.** What about the “qRT-PCR LOXL4 (Ct)” value [1, 4] of the same molecule?
**A.** 26.1005 and 25.1765 and 30.4751

**Q.** And the “qRT-PCR LOX (Ct)” value [1, 5]?
**A.** 32.5405 and 35.0722 and 35.237

**Q.** And the “qRT-PCR LOX ΔΔCt KPC CC” value [1, 5]?
**A.** 3.619 and 0.48 and 10.8682

**Q.** And the “qRT-PCR LOXL1 ΔΔCt KPC CC” value [1, 5]?
**A.** 0.8362 and 0.4014 and 1.074

**Q.** What about the “qRT-PCR LOXL2 ΔΔCt KPC CC” value [1, 5] of the same molecule?
**A.** 0.7412 and 0.4847 and 0.5812

**Q.** What about the “qRT-PCR LOXL3 ΔΔCt KPC CC” value [1, 5] of the same molecule?
**A.** 2.035 and 0.9488 and 0.7538

**Q.** And the “qRT-PCR LOX ΔCt” value [1, 6]?
**A.** 15.5819 and 18.4964 and 13.9954

**Q.** And the “qRT-PCR LOXL1 ΔCt” value [1, 6]?
**A.** 12.8511 and 13.9099 and 12.4902

**Q.** And the “qRT-PCR LOXL2 ΔCt” value [1, 6]?
**A.** 5.9121 and 6.525 and 6.263

**Q.** And the “qRT-PCR LOXL3 ΔCt” value [1, 6]?
**A.** 6.376 and 7.477 and 7.8086

**Q.** And the “qRT-PCR LOXL4 ΔΔCt KPC CC” value ([1]; KPC CC, 48 hour treatment, replicates)?
**A.** 3.255 and 0.9772 and 0.6302

**Q.** What about the “qRT-PCR LOXL4 ΔCt” value ([1]; KPC CC, 48 hour treatment, vs GAPDH, replicates) of the same molecule?
**A.** 6.8648 and 8.601 and 9.233

**Q.** What about the “transcription of lysyl oxidase family members” value ([1]; KPC CCs, PXS-5505 up to 300 µM) of the same molecule?
**A.** does not significantly alter transcription

**Q.** What about the “FITC-dextran (10 kDa) signal quantification” value (KPC PDAC tumors) of the same molecule?
**A.** 643536 and 877109 and 855018 and 639402 and 1028780 and 1101294 and 1096543 and 614729 and 1678517 and 411292 and 888855 and 96222 and 332580 and 192955 and 224263 and 475860 and 248857 and 803743 and 104073 and 736895
